The target in data set [1] is MetC (Escherichia coli, UniProt P06721). Conditions: Dwivedi et al. 1982, cited from earlier work.
Data set [2] has as its target MetC (Salmonella typhimurium, UniProt P18949). To be noted: read-out: MetC Km; S. thyphimurium MetC; Dwivedi et al. 1982; cited from earlier work.
Data set [3] has as its target T1, MetC (Corynebacterium glutamicum, UniProt Q93QC6).
T1 construct: His-Tag (N); made in house; host or cells: Escherichia coli
T1 sequence (Q93QC6 1-368): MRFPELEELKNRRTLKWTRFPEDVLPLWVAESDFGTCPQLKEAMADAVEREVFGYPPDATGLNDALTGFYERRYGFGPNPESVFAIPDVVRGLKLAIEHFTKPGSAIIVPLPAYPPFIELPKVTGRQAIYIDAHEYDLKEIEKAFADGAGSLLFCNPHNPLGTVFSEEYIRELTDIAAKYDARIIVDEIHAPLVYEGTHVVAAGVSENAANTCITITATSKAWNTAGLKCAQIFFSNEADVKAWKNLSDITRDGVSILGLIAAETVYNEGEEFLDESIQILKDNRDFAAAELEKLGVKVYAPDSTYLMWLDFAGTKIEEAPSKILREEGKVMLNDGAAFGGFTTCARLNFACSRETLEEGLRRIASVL
The format is biochemical. Conditions: for Cleavage by MetC: MetC added to MetB assay products after MetB removal, HPLC and photometric SH-group assay. As to the method: (§1) Overexpression and purification of enzymes. MetB and MetC of C. glutamicum were cloned in the vector pQE30 (Qiagen). Expression with this vector comprises the addition of a His-Tag to the N-terminus of the expressed protein. Escherichia coli was transformed with the plasmid and selected by ampicillin resistance (100 μg/mL). Transformed E. coli was cultivated (100 μg/mL ampicillin, 37° C., 230 rpm) on terrific broth (Losen et al., Biotechnol Prog 2004, 204, 1062-8) and induced at an optical density of 1 (600 nm) by addition of 1 mM isopropyl thiogalactoside (final concentration). The cells were harvested by centrifugation (4225 g, 15 min, 2° C.) after 16 h of induced growth, washed and resuspended in phosphate buffer (100 mM, 100 μM pyridoxal phosphate, 1 mg/mL DNAse 1, pH 7.4 at 4° C.) and extracted by sonication (5×15 sec, 20 micron). The crude extracts were separated from cell debris by centrifugation (30 min, 2° C., and 20000 g). […] After the protein was applied to the column, it was washed with 10 vol. of 0.02 M sodium phosphate buffer. Elution was carried out with a linear gradient with 0.02 M sodium phosphate buffer (pH 7.4) containing 0.5 M NaCl and 0.5 M imidazol. The fractions containing the protein were checked for purity with SDS-PAGE and then pooled together. Imidazole was separated from the proteins by ultrafiltration.
In vitro assays of MetB and MetC. Activity of MetB and MetC was followed photometrically (Helios α, Thermo Electronic, Dreieich, Germany). Enzyme activities were measured by increase or decrease of free SH-groups using Ellman's reagent (Extinction at 412 nm) (Ellman and Lysko, 1979). The assay mixtures contained 1.25 mM cysteine or homocysteine and 3 mM O-acetyl homoserine for MetB-assays and 1.25 mM cystathionine or about 1.25 mM homolanthionine for MetC-assays. Homolanthionine was not commercially available. The MetC-assay was therefore carried out using the products of the MetB-assay. MetB was removed by ultrafiltration. Thus, the homolanthionine concentration could not be adjusted in the assays. […]

The target of data set [4] is MetC (Bordetella avium, UniProt Q07703). Conditions: read-out: MetC Km; B. avium MetC; Gentry-Weeks et al. 1993; cited from earlier work.
Chain of MetC (Bordetella avium, UniProt Q07703) (Q07703 whole entry): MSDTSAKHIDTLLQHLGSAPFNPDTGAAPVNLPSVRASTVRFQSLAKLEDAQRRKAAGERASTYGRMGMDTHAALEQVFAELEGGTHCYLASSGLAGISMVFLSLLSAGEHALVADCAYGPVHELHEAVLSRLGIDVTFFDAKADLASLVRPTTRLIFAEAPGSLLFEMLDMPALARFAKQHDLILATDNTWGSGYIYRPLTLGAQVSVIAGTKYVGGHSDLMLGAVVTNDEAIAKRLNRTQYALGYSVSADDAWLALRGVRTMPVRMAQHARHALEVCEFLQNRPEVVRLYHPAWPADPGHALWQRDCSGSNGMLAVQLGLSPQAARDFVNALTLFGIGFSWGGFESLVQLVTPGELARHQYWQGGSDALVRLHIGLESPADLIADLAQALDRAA
Data set [5] deals with T2, MetB (Corynebacterium glutamicum, UniProt Q79VD9).
T2 sequence (Q79VD9 1-386): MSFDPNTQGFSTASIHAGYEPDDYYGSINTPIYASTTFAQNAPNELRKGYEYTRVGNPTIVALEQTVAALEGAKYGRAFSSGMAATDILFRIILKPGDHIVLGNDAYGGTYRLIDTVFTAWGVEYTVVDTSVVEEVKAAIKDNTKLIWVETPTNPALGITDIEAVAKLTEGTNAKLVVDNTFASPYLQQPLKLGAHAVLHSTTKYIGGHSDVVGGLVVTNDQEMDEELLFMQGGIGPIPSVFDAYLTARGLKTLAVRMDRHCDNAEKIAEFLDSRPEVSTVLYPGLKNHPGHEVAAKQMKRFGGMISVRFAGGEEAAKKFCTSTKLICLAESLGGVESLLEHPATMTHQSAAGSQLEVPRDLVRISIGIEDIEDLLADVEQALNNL
As to the kind of experiment: In vitro assay of MetB, Km from Lineweaver-Burk plots. The format is biochemical. To be noted: C. glutamicum MetB, with O-acetyl homoserine, this study. As to the method:
as §1, with “The fractions containing the protein were checked for purity with SDS-PAGE and then pooled together. Imidazole was separated from the proteins by ultrafiltration.” left out
In vitro assays of MetB and MetC. […] Enzyme activities were measured by increase or decrease of free SH-groups using Ellman's reagent (Extinction at 412 nm) (Ellman and Lysko, 1979). […]

The test system of data set [6] is MetB. To be noted: read-out: MetB Km; Spinach MetB; Ravanel et al. 1995; cited from earlier work.
Data set [7] deals with MetB (Escherichia coli, UniProt P00935). To be noted: E. coli MetB; Holbrook et al. 1990; cited from earlier work.
Chain of MetB (Escherichia coli, UniProt P00935) (P00935 whole entry): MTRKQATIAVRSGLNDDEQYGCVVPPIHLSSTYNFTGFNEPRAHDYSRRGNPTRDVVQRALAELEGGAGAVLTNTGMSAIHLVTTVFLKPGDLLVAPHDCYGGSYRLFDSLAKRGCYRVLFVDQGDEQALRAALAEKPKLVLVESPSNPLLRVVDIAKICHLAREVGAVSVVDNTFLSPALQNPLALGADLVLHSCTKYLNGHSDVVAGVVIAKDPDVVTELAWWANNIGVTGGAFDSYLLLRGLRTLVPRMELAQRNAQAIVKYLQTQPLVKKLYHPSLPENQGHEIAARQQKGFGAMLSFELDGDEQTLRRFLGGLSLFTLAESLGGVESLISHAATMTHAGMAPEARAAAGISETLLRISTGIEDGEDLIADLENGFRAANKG
Substrate in data set [8]: N[C@@H](CCS)C(=O)O
As to the kind of experiment: purified protein, by the assay type. Conditions: other: C. glutamicum MetB, with O-acetyl homoserine, this study; 37.0 °C.

Read-outs that look alike come from different tables or passages of the source.

Chain of MetC (Escherichia coli, UniProt P06721) (P06721 2-395): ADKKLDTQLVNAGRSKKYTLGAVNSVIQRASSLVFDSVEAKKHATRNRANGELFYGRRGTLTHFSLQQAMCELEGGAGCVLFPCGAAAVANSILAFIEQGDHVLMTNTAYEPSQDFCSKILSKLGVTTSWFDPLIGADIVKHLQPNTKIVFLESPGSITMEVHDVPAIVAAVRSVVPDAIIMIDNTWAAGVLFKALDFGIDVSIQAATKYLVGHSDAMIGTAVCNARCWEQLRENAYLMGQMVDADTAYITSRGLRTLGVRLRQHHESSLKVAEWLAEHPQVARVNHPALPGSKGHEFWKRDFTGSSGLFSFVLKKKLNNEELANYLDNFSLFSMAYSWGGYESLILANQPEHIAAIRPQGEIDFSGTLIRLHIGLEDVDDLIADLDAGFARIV
Chain of MetC (Salmonella typhimurium, UniProt P18949) (P18949 whole entry): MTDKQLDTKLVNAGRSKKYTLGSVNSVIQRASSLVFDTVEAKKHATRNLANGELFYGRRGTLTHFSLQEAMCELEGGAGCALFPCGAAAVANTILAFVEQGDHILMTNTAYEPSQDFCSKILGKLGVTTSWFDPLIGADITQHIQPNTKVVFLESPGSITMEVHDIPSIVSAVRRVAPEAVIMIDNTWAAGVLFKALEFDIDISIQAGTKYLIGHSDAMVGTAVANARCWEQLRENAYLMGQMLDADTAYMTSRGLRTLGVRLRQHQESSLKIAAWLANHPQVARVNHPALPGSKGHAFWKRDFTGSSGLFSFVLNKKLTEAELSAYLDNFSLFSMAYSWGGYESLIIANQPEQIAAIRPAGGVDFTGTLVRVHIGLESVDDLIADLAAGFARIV

Regarding `N[C@@H](CCSC[C@H](N)C(=O)O)C(=O)O` [L-cystathionine], the Km on MetC [1] (E. coli MetC) is 40 µM; at MetC [2], 220 µM; on MetC [3] (C. glutamicum MetC, this study) it was 107 µM; on MetC [4], 70 µM. Besides, on MetC [3], the “Cleavage by MetC” value is given as “complete cleavage”.
Take `N[C@@H](CS)C(=O)O` [L-cysteine]: the results for the Km on MetB [5], in the data set on MetB [6] and at MetB [7] were 258 µM, 180 µM and 50 µM, respectively.
As to `N[C@@H](CCSCC[C@H](N)C(=O)O)C(=O)O` [L-homolanthionine, S-[(3S)-3-amino-3-carboxypropyl]-L-homocysteine], the Km at MetC [1] (E. coli MetC) was 4540 µM; on MetC [1] (E. coli cystathionase), 4500 µM. The “Cleavage by MetC” value at MetC [3] was “only poorly cleaved”.

B1: MetB (Corynebacterium glutamicum ATCC 13032) (protein)
chain: T2 sequence (Q79VD9 1-386)
B1: the Km in data set [8] worked out at 541 µM.

Usually Km stands for the substrate concentration at which the rate is half of its maximum.

The record behind these values is patent publication US8148117B2, “Microorganism and process for the preparation of L-methionine” (Evonik Degussa GmbH, priority 2005, dated 2012).
